Measured values from patent US11566007B2, “Ras inhibitors” (Revolution Medicines, Inc., priority 2019, dated 2023).

Key:
[1] = target: NRAS WT (Homo sapiens (Human), UniProt P01111+P62937); assay: Ras-Raf (BRAF RBD) disruption / FRET / MOA assay, NRAS WT; assay type: biochemical; conditions: read-out: IC50* NRAS WT FRET data
Procedure, shortened: (§1)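 TR-FRET disruption of nucleotide-loaded Ras binding to BRAF RBD via compound-driven ternary complex with cyclophilin A. Compound as 10-point 3-fold series from 30 μM final, 3 h at 25° C, then anti-His Eu-W1024 (10 nM) and anti-GST allophycocyanin (50 nM) for 1.5 h. IC50 from decreased FRET ratio versus DMSO.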

[2] = target: KRAS G13D (Homo sapiens (Human), UniProt P01116+P62937, G13D); assay: Ras-Raf (BRAF RBD) disruption / FRET / MOA assay, KRAS G13D; assay type: biochemical; conditions: read-out: IC50* KRAS G13D FRET data
Procedure, shortened: (§2)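 Compounds, top final concentration 30 μM in 10-point 3-fold series, incubated 3 hours at 25° C with nucleotide-loaded Ras, cyclophilin A and BRAF RBD.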

[3] = target: NRAS G12C (Homo sapiens (Human), UniProt P01111+P62937, G12C); assay: Ras-Raf (BRAF RBD) disruption / FRET / MOA assay, NRAS G12C; assay type: biochemical; conditions: read-out: IC50* NRAS G12C FRET data
Procedure, shortened: as §2

[4] = target: K-Ras G13C (Homo sapiens (Human), UniProt P01116+P62937, G13C); assay: Ras-Raf (BRAF RBD) disruption / FRET / MOA assay, KRAS G13C; assay type: biochemical; conditions: KRAS G13C; Ras-Raf disruption/FRET/MOA assay; read-out: IC50* KRAS G13C FRET data
Procedure, shortened: as §2

[5] = target: KRAS WT (Homo sapiens (Human), UniProt P01116+P62937); assay: Ras-Raf (BRAF RBD) disruption / FRET / MOA assay, KRAS WT; assay type: biochemical; conditions: read-out: IC50* KRAS WT FRET data
Procedure, shortened: as §2

[6] = target: KRAS G12V (Homo sapiens (Human), UniProt P01116+P62937, G12V); assay: Ras-Raf (BRAF RBD) disruption / FRET / MOA assay, KRAS G12V; assay type: biochemical; conditions: read-out: IC50* KRAS G12V FRET data
Procedure, shortened: as §2

[7] = test system: NCI-H358 (K-Ras G12C); assay: CellTiter-Glo cell viability assay, NCI-H358; assay type: cell-based, human; conditions: Homo sapiens, NCI-H358, 120 h, NCI-H358, 5-day treatment; class symbols; read-out: Additional H358 Cell Viability assay data (K-Ras G12C, IC50)
Procedure, shortened: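 Compounds dispensed directly onto seeded K-Ras mutant cells; plates read on day 5 after ~30 min equilibration to room temperature, by CellTiter-Glo luminescence. Signal normalized as (sample/mean DMSO)×100, then fitted to a four-parameter logistic curve.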

[8] = target: KRAS G12S (Homo sapiens (Human), UniProt P01116+P62937, G12S); assay: Ras-Raf (BRAF RBD) disruption / FRET / MOA assay, KRAS G12S; assay type: biochemical; conditions: Ras-Raf disruption/FRET/MOA assay; class symbols; read-out: KRAS G12S FRET data IC50
Procedure, shortened: as §2

[9] = target: NRAS Q61R (Homo sapiens (Human), UniProt P01111+P62937, Q61R); assay: Ras-Raf (BRAF RBD) disruption / FRET / MOA assay, NRAS Q61R; assay type: biochemical; conditions: NRAS Q61R; Ras-Raf disruption/FRET/MOA assay; read-out: IC50* NRAS Q61R FRET data
Procedure, shortened: as §1

[10] = target: KRAS G12D (Homo sapiens (Human), UniProt P01116+P62937, G12D); assay: Ras-Raf (BRAF RBD) disruption / FRET / MOA assay, KRAS G12D; assay type: biochemical; conditions: Ras-Raf disruption/FRET/MOA assay; class symbols; read-out: KRAS G12D FRET data IC50
Procedure, shortened: as §2

[11] = target: K-Ras G12C (Homo sapiens (Human), UniProt P01116+P62937, G12C); assay: Ras-Raf (BRAF RBD) disruption / FRET / MOA assay, KRAS G12C; assay type: biochemical; conditions: KRAS G12C; Ras-Raf disruption/FRET/MOA assay; read-out: IC50* KRAS G12C FRET data
Procedure, shortened: as §2

[12] = target: KRAS Q61H (Homo sapiens (Human), UniProt P01116+P62937, Q61H); assay: Ras-Raf (BRAF RBD) disruption / FRET / MOA assay, KRAS Q61H; assay type: biochemical; conditions: Ras-Raf disruption/FRET/MOA assay; class symbols; read-out: KRAS Q61H FRET data IC50
Procedure, shortened: as §1

Chain of KRAS Q61H (P01116-2 other isoform, or with tags, fused parts or gaps Q61H): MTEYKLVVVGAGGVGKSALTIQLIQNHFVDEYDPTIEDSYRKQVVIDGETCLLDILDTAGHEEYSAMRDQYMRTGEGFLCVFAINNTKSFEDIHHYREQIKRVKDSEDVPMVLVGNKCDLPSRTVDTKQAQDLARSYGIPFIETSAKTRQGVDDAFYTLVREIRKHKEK
Chain of KRAS Q61H (P62937 whole entry): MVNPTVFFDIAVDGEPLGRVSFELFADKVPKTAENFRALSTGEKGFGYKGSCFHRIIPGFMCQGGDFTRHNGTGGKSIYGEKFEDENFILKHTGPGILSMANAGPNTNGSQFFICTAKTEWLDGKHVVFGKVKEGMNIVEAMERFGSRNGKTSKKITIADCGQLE
Chain of K-Ras G13C (P01116-2 other isoform, or with tags, fused parts or gaps G13C): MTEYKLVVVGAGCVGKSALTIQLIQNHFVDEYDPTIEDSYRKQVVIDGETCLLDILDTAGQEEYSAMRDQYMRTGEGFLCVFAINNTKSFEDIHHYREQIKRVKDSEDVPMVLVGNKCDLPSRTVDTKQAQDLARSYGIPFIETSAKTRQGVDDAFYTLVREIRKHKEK
Chain of K-Ras G13C (P62937 whole entry): as the sequence (P62937 whole entry) above
Chain of KRAS G12S (P01116-2 other isoform, or with tags, fused parts or gaps G12S): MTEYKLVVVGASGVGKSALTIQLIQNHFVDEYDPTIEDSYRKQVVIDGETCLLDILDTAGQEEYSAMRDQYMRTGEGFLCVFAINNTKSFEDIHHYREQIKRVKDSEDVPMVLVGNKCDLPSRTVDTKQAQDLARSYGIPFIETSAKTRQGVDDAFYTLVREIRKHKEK
Chain of KRAS G12S (P62937 whole entry): as the sequence (P62937 whole entry) above
Chain of KRAS G12D (P01116-2 other isoform, or with tags, fused parts or gaps G12D): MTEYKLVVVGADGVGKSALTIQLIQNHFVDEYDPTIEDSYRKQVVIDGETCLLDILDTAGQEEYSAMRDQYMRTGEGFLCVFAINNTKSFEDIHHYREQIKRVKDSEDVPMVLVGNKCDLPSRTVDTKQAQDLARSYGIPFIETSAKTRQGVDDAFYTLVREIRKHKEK
Chain of KRAS G12D (P62937 whole entry): as the sequence (P62937 whole entry) above
Chain of KRAS G12V (P01116-2 other isoform, or with tags, fused parts or gaps G12V): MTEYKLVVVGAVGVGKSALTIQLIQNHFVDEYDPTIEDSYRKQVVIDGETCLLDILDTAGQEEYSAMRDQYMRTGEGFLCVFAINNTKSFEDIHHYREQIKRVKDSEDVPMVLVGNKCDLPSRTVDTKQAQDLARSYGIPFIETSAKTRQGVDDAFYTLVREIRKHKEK
Chain of KRAS G12V (P62937 whole entry): as the sequence (P62937 whole entry) above
Chain of NRAS Q61R (P01111 whole entry Q61R): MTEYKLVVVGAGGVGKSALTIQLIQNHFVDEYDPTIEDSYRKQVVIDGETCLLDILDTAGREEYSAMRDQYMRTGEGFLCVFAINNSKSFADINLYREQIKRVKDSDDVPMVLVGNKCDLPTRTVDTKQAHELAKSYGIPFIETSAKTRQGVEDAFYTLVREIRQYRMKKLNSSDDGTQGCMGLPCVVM
Chain of NRAS Q61R (P62937 whole entry): as the sequence (P62937 whole entry) above
Chain of NRAS WT (P01111 whole entry): as the sequence (P01111 whole entry Q61R) above, with R61Q counted along it
Chain of NRAS WT (P62937 whole entry): as the sequence (P62937 whole entry) above
Chain of KRAS WT (P01116-2 other isoform, or with tags, fused parts or gaps): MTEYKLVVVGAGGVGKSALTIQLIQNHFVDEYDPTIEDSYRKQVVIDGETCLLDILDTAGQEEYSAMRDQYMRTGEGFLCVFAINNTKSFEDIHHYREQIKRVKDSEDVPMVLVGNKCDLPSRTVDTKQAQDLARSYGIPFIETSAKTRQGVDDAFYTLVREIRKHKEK
Chain of KRAS WT (P62937 whole entry): as the sequence (P62937 whole entry) above
Chain of KRAS G13D (P01116-2 other isoform, or with tags, fused parts or gaps G13D): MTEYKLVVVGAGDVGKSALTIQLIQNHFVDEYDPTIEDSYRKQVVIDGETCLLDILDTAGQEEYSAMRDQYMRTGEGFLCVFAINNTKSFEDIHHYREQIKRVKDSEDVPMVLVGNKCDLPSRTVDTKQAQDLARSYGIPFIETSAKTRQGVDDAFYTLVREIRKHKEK
Chain of KRAS G13D (P62937 whole entry): as the sequence (P62937 whole entry) above
Chain of K-Ras G12C (P01116-2 other isoform, or with tags, fused parts or gaps G12C): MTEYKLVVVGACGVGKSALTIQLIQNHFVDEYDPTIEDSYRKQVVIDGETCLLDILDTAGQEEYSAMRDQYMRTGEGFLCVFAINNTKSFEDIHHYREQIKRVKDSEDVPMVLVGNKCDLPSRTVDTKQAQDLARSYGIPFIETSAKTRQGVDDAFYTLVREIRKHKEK
Chain of K-Ras G12C (P62937 whole entry): as the sequence (P62937 whole entry) above
Chain of NRAS G12C (P01111 whole entry G12C): as the sequence (P01111 whole entry Q61R) above, with G12C, R61Q counted along it
Chain of NRAS G12C (P62937 whole entry): as the sequence (P62937 whole entry) above

| Compound | IC50 [1] [nM] | IC50 [2] [nM] | IC50 [3] [nM] | IC50 [4] [nM] | IC50 [5] [nM] | IC50 [6] [nM] | IC50 [7] [nM] | IC50 [8] [nM] | IC50 [9] [nM] | IC50 [10] [nM] | IC50 [11] [nM] | IC50 [12] [nM] |
| --- | --- | --- | --- | --- | --- | --- | --- | --- | --- | --- | --- | --- |
| C=CC(=O)N1CC[C@H](C(=O)N2CCCCC[C@H]2C(=O)N[C@H]2Cc3nc(cs3)-c3ccc4c(c3)c(c(-c3cccnc3[C@H](C)OC)n4CC)CC(C)(C)COC(=O)[C@@H]3CCCN(N3)C2=O)C1 (atropisomer, axis not shown) [Example A495] | 1000 to 10000 | > 10000 | 100 to 1000 | 1000 to 10000 | 1000 to 10000 | 1000 to 10000 | 10 to 100 | 1000 to 10000 | 1000 to 10000 | > 10000 | 100 to 1000 | 1000 to 10000 |
| C=CC(=O)N(C)CCN1CCN(C(=O)N(C)[C@H](C(=O)N[C@H]2Cc3cccc(c3)-c3ccc4c(c3)c(c(-c3cccnc3[C@H](C)OC)n4CC)CC(C)(C)COC(=O)[C@@H]3CCCN(N3)C2=O)C(C)C)CC1 (atropisomer, axis not shown) [Example A539] | 100 to 1000 | 1000 to 10000 | 100 to 1000 | 10 to 100 | 100 to 1000 | 100 to 1000 | 100 to 1000 | 100 to 1000 | 100 to 1000 | 1000 to 10000 | 100 to 1000 | 100 to 1000 |
| C=CC(=O)N1CCOC2(CCN(C(=O)N(C)[C@H](C(=O)N[C@H]3Cc4cc(C(F)F)cc(n4)-c4ccc5c(c4)c(c(-c4cccnc4[C@H](C)OC)n5CC(F)(F)F)CC(C)(C)COC(=O)[C@@H]4CCCN(N4)C3=O)C(C)C)CC2)C1 (atropisomer, axis not shown) [Example A541] | 100 to 1000 | 1000 to 10000 | 100 to 1000 | 10 to 100 | 100 to 1000 | 1000 to 10000 | 10 to 100 | 100 to 1000 | 100 to 1000 | 1000 to 10000 | 100 to 1000 | 100 to 1000 |
| C=CC(=O)N1CCC[C@]12CCN(C(=O)N(C)[C@H](C(=O)N[C@H]1Cc3nc(cs3)-c3ccc4c(c3)c(c(-c3cccnc3[C@H](C)OC)n4CC)CC(C)(C)COC(=O)[C@@H]3CCCN(N3)C1=O)C(C)C)C2 (atropisomer, axis not shown) [Example A548] | 100 to 1000 | 1000 to 10000 | 100 to 1000 | 1000 to 10000 | 100 to 1000 | 100 to 1000 | 100 to 1000 | 100 to 1000 | 100 to 1000 | 1000 to 10000 | 100 to 1000 | 100 to 1000 |
| C=CC(=O)N(C)CCN1CCN(C(=O)N(C)[C@H](C(=O)N[C@H]2Cc3cccc(c3)-c3ccc4c(c3)c(c(-c3cccnc3[C@H](C)OC)n4CC)CC(C)(C)COC(=O)[C@@H]3CCCN(N3)C2=O)C(C)C)C[C@H]1C (atropisomer, axis not shown) [Example A553] | 1000 to 10000 | 1000 to 10000 | 100 to 1000 | 10 to 100 | 100 to 1000 | 1000 to 10000 | 100 to 1000 | 1000 to 10000 | 1000 to 10000 | 1000 to 10000 | 100 to 1000 | 100 to 1000 |
| C=CC(=O)N1CCC2(CCN(C(=O)N(C)[C@H](C(=O)N[C@H]3Cc4cccc(c4)-c4ccc5c(c4)c(c(-c4cccnc4[C@H](C)OC)n5CC)CC(C)(C)COC(=O)[C@@H]4CCCN(N4)C3=O)C(C)C)CC2)C1 (atropisomer, axis not shown) [Example A554] | 100 to 1000 | 1000 to 10000 | 100 to 1000 | 10 to 100 | 100 to 1000 | 100 to 1000 | 100 to 1000 | 100 to 1000 | 100 to 1000 | 1000 to 10000 | 100 to 1000 | 100 to 1000 |
| C=CC(=O)N1CC[C@]2(C1)OCN([C@H](C(=O)N[C@H]1Cc3cc(cc(C(F)F)c3)-c3ccc4c(c3)c(c(-c3cccnc3[C@H](C)OC)n4CC)CC(C)(C)COC(=O)[C@@H]3CCCN(N3)C1=O)C(C)C)C2=O (atropisomer, axis not shown) [Example A557] | 100 to 1000 | 1000 to 10000 | 100 to 1000 | 100 to 1000 | 100 to 1000 | 1000 to 10000 | 100 to 1000 | 100 to 1000 | 1000 to 10000 | 1000 to 10000 | 100 to 1000 | 10 to 100 |
